Reference: patent US10294202B2, “Pyrrolidinones as herbicides” (FMC Corporation, priority 2013, dated 2019)

Tests used:
[1] = test system: waterhemp; test: Test C pre-/postemergence herbicide test; type: in vivo, Amaranthus rudis
Outline: (§1)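 Response scores range from 0, meaning no effect, to 100, meaning complete control, assigned visually by comparison with controls roughly two weeks (13 to 15 days) after spraying. Applications were made preemergence to seeded loam–sand soil and postemergence to 1- to 4-leaf plants.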

[2] = test system: johnsongrass; test: Test C pre-/postemergence herbicide test; type: in vivo, Sorghum halepense
Outline: as §1

[3] = test system: barnyardgrass; test: Test B flooded paddy test; type: in vivo, Echinochloa crus-galli; conditions: 500 g ai/ha, Flood; scale of 0 to 100 where 0 is no effect and 100 is complete control
Outline: (§2)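 Paddy-water application at a 3 cm flood, young plants having two leaves. Water level maintained; greenhouse, 13–15 days; visual 0–100 control rating.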

[4] = test system: sedge, umbrella; test: Test B flooded paddy test; type: in vivo, Cyperus difformis; conditions: 500 g ai/ha, Flood; scale of 0 to 100 where 0 is no effect and 100 is complete control
Outline: as §2

[5] = test system: barnyardgrass; test: Test C pre-/postemergence herbicide test; type: in vivo, Echinochloa crus-galli
Outline: as §1

[6] = test system: oat, wild; test: Test C pre-/postemergence herbicide test; type: in vivo, Avena fatua; conditions: Postemergence
Outline: as §1

[7] = test system: crabgrass, large; test: Test C pre-/postemergence herbicide test; type: in vivo, Digitaria sanguinalis
Outline: as §1

[8] = test system: giant foxtail; test: Test A pre-/postemergence herbicide test; type: in vivo, Setaria faberii; conditions: for Plant response rating, Foxtail, Giant: 0 to 100 scale
Outline: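 Scoring was visual, relative to untreated controls, on a 0–100 scale after about 10 greenhouse days. Preemergence treatment used a directed soil spray over seeded loam/sand; postemergence treatment targeted one- to two-leaf plants of 2–10 cm.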

[9] = test system: ragweed; test: Test C pre-/postemergence herbicide test; type: in vivo, Ambrosia elatior
Outline: as §1

[10] = test system: velvetleaf; test: Test C pre-/postemergence herbicide test; type: in vivo, Abutilon theophrasti
Outline: as §1

[11] = test system: ryegrass, Italian; test: Test C pre-/postemergence herbicide test; type: in vivo, Lolium multiflorum
Outline: as §1

[12] = Postemergence, 31 g ai/ha, scale 0 to 100 (0 no effect, 100 complete control)
[13] = Postemergence, 62 g ai/ha, scale 0 (no effect) to 100 (complete control)
[14] = Postemergence, 125 g ai/ha, scale 0 to 100 (0 no effect, 100 complete control)
[15] = Postemergence, 250 g ai/ha, scale 0 to 100 (0 no effect, 100 complete control)
[16] = Preemergence, 31 g ai/ha, scale 0 to 100, 0 is no effect and 100 is complete control
[17] = Preemergence, 62 g ai/ha, scale 0 to 100 (0 no effect, 100 complete control)
[18] = Preemergence, 125 g ai/ha, scale 0 to 100 (0 no effect, 100 complete control)

O=C1NCC(c2cccc(OC(F)F)c2)C1C(=O)Nc1ccccc1F (stereo not drawn) [Compound 223]
100: Plant response rating (scale of 0 to 100), Crabgrass, Large ([7]; Preemergence, 250 g ai/ha)
90: Waterhemp plant response rating [1, 16] | Plant response rating, Barnyardgrass [5, 18] | Crabgrass, Large plant response rating [7, 17] | Plant response rating, Foxtail, Giant ([8]; 125 g ai/ha, visual rating, 0 no effect, 100 complete control, approximately 10 days, preemergence) | Foxtail, Giant plant response rating (0 to 100 scale, 0 is no effect, 100 is complete control) ([8]; Postemergence, 500 g ai/ha) | Plant response rating, Foxtail, Giant ([8]; preemergence, 500 g ai/ha, 0 is no effect and 100 is complete control)
80: Plant response rating, Crabgrass, Large [7, 15] | Plant response rating, Foxtail, Giant ([8]; Postemergence, 125 g ai/ha, 0 is no effect, 100 is complete control)
10: Plant response rating, Waterhemp [1, 14] | Plant response rating, Waterhemp [1, 15] | Plant response rating, Crabgrass, Large [7, 13] | Plant response rating, Ragweed [9, 18] | Plant response rating, Ryegrass, Italian [11, 18]
85: Plant response rating, Barnyardgrass ([5]; Preemergence, 62 g ai/ha, scale 0 to 100) | Crabgrass, Large plant response rating [7, 16]
55: Plant response rating (scale of 0 to 100), Johnsongrass ([2]; Preemergence, 250 g ai/ha) | Plant response rating, Crabgrass, Large [7, 14]
20: Plant response rating, Velvetleaf [10, 15]
75: Plant response rating, Barnyardgrass [3]
60: Plant response rating, Barnyardgrass [5, 15]
95: Plant response rating (scale of 0 to 100; 0 is no effect, 100 is complete control), Barnyardgrass ([5]; Preemergence, 250 g ai/ha) | Plant response rating, Crabgrass, Large [7, 18]
35: Plant response rating, Johnsongrass [2, 18] | Plant response rating, Ragweed [9, 14] | Plant response rating, Ragweed [9, 15] | Plant response rating (scale of 0 to 100), Velvetleaf ([10]; Preemergence, 250 g ai/ha)
0: Plant response rating, Waterhemp [1, 12] | Plant response rating, Waterhemp [1, 13] | Waterhemp plant response rating [1, 17] | Plant response rating, Waterhemp [1, 18] | Plant response rating, Johnsongrass [2, 12] | Plant response rating, Johnsongrass [2, 13] | Plant response rating, Johnsongrass [2, 14] | Plant response rating, Johnsongrass [2, 15] | Johnsongrass plant response rating [2, 16] | Johnsongrass plant response rating [2, 17] | Plant response rating, Sedge, Umbrella [4] | Plant response rating, Barnyardgrass [5, 12] | Plant response rating, Barnyardgrass [5, 13] | Plant response rating, Oat, Wild ([6]; 31 g ai/ha, scale 0 to 100 (0 no effect, 100 complete control)) | Plant response rating, Oat, Wild ([6]; 62 g ai/ha, scale 0 (no effect) to 100 (complete control)) | Plant response rating, Oat, Wild ([6]; 125 g ai/ha, scale 0 to 100 (0 no effect, 100 complete control)) | Plant response rating, Oat, Wild ([6]; 250 g ai/ha, scale 0 to 100 (0 no effect, 100 complete control)) | Plant response rating, Crabgrass, Large [7, 12] | Plant response rating, Ragweed [9, 12] | Plant response rating, Ragweed [9, 13] | Ragweed plant response rating [9, 16] | Ragweed plant response rating [9, 17] | Plant response rating, Velvetleaf [10, 12] | Plant response rating, Velvetleaf [10, 13] | Plant response rating, Velvetleaf [10, 14] | Velvetleaf plant response rating [10, 16] | Velvetleaf plant response rating [10, 17] | Plant response rating, Ryegrass, Italian [11, 12] | Plant response rating, Ryegrass, Italian [11, 13] | Plant response rating, Ryegrass, Italian [11, 14] | Plant response rating, Ryegrass, Italian [11, 15] | Ryegrass, Italian plant response rating [11, 16] | Ryegrass, Italian plant response rating [11, 17]
65: Barnyardgrass plant response rating [5, 16]
45: Plant response rating, Barnyardgrass [5, 14]
15: Plant response rating (scale of 0 to 100), Ryegrass, Italian ([11]; Preemergence, 250 g ai/ha)
25: Plant response rating (scale of 0 to 100), Waterhemp ([1]; Preemergence, 250 g ai/ha) | Plant response rating (scale of 0 to 100), Ragweed ([9]; Preemergence, 250 g ai/ha) | Plant response rating, Velvetleaf [10, 18]
